{
  "source": "paper PMC7069776",
  "about": "(Journal of medicinal chemistry, 2019)",
  "key": {"C. albicans Hsp90 NBD": {"system": "C. albicans Hsp90 NBD", "details": "cited from earlier work"}, "[1]": {"system": "C. albicans clinical isolate (CaCi2)", "assay": "Antifungal sensitivity testing", "type": "cell-based", "details": "CaCi2, cultures spotted on compound-free YPD agar, 30 °C, 24 h"}, "Hsp90": {"target": "Hsp90 (Candida albicans, UniProt P46598)", "sequence (P46598 whole entry)": "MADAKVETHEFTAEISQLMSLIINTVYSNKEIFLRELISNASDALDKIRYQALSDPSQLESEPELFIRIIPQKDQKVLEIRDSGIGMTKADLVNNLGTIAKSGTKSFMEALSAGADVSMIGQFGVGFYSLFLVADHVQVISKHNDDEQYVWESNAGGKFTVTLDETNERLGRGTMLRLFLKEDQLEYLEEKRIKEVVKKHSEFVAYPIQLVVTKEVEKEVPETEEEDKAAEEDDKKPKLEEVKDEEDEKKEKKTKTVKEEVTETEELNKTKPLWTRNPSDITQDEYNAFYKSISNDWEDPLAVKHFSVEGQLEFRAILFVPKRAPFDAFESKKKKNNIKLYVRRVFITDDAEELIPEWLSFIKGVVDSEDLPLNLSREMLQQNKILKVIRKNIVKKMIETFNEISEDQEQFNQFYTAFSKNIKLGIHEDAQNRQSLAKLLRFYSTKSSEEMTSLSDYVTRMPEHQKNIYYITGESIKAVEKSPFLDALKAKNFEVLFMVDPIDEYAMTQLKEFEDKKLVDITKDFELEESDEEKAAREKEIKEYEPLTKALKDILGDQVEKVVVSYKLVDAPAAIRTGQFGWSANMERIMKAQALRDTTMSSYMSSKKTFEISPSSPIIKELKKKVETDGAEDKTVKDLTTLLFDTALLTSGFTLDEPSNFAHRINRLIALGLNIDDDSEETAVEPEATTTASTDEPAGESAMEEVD", "assay": "biochemical"}, "[2]": {"system": "C. neoformans (Strain H99)", "details": "H99, RPMI 1640, 37 °C (Fig. 4A)"}},
  "data": [
    {"smiles": "COc1ccc(CO\\N=C2/C=C/C=C\\[C@H]3O[C@@H]3C[C@@H](C)OC(=O)c3c(O)cc(O)cc3C2)cc1", "note": "[CMLD013075]", "values": [
      {"measurement": "binding selectivity for the C. albicans Hsp90 NBD compared to the human ortholog", "setting": "C. albicans Hsp90 NBD", "value": "> 25", "unit": "fold"}
    ]},
    {"smiles": "COc1ccc(Cn2nc(-c3ccccc3)cc2Nc2cc(O)cc(O)c2C(=O)N2Cc3ccccc3C2)cc1", "note": "[Compound 21, 4-(2,3-dihydro-1H-isoindole-2-carbonyl)-5-((1-((4-methoxyphenyl)methyl)-3-phenyl-1H-pyrazol-5-yl)amino)benzene-1,3-diol]", "values": [
      {"measurement": "fungicidal activity in combination with fluconazole", "setting": "[1]", "value": "fungicidal activity"}
    ]},
    {"smiles": "COc1ccc(Cn2nc(C)cc2Nc2cc(O)cc(O)c2C(=O)N(C)CC2CC2)cc1", "note": "[Compound 30, N-(Cyclopropylmethyl)-2,4-dihydroxy-6-((1-((4-methoxyphenyl)methyl)-3-methyl-1H-pyrazol-5-yl)amino)-N-methylbenzamide]", "values": [
      {"measurement": "EC50", "setting": "Hsp90", "value": "> 9", "unit": "µM"}
    ]},
    {"smiles": "COc1ccc(Cn2nc(-c3ccccc3)cc2Nc2cc(O)cc(O)c2C(=O)N(C)CC2CC2)cc1", "note": "[Compound 31, N-(Cyclopropylmethyl)-2,4-dihydroxy-6-((1-((4-methoxyphenyl)methyl)-3-phenyl-1H-pyrazol-5-yl)amino)-N-methylbenzamide]", "values": [
      {"measurement": "EC50", "setting": "Hsp90", "value": "> 9", "unit": "µM"}
    ]},
    {"smiles": "COc1ccc(Cn2nc(C)cc2Nc2cc(O)cc(O)c2C(=O)N(C)Cc2ccccc2)cc1", "note": "[Compound 37, N-Benzyl-2,4-dihydroxy-6-((1-((4-methoxyphenyl)methyl)-3-methyl-1H-pyrazol-5-yl)amino)-N-methylbenzamide]", "values": [
      {"measurement": "EC50", "setting": "Hsp90", "value": "> 6", "unit": "µM"}
    ]},
    {"smiles": "CCN(CC)C(=O)c1c(O)cc(O)cc1Nc1cc(-c2ccccc2)nn1Cc1ccc(OC)cc1", "note": "[Compound 39, N,N-Diethyl-2,4-dihydroxy-6-((1-((4-methoxyphenyl)methyl)-3-phenyl-1H-pyrazol-5-yl)amino)benzamide]", "values": [
      {"measurement": "EC50", "setting": "Hsp90", "value": "> 10", "unit": "µM"}
    ]},
    {"smiles": "COc1ccc(Cn2ncc(C)c2Nc2cc(O)cc(O)c2C(=O)N2Cc3ccccc3C2)cc1", "note": "[Compound 41, 4-(2,3-Dihydro-1H-isoindole-2-carbonyl)-5-((1-((4-methoxyphenyl)methyl)-4-methyl-1H-pyrazol-5-yl)amino)benzene-1,3-diol]", "values": [
      {"measurement": "fungicidal activity in combination with fluconazole", "setting": "[1]", "value": "fungicidal activity"}
    ]},
    {"smiles": "Cc1cc(Nc2cc(O)cc(O)c2C(=O)N2Cc3ccccc3C2)n(Cc2ccccc2Cl)n1", "note": "[Compound 89, 5-((1-((2-Chlorophenyl)methyl)-3-methyl-1H-pyrazol-5-yl)amino)-4-(2,3-dihydro-1H-isoindole-2-carbonyl)benzene-1,3-diol]", "values": [
      {"measurement": "fungicidal activity in combination with fluconazole", "setting": "[1]", "value": "fungicidal activity"}
    ]},
    {"smiles": "Cc1ccccc1-c1cc(Nc2cc(O)cc(O)c2C(=O)N2Cc3ccccc3C2)n(C)n1", "note": "[Compound 106, 4-(2,3-Dihydro-1H-isoindole-2-carbonyl)-5-((1-methyl-3-(2-methylphenyl)-1H-pyrazol-5-yl)amino)benzene-1,3-diol]", "values": [
      {"measurement": "concentration inhibiting growth of C. neoformans", "setting": "[2]", "value": "below 10 μM"}
    ]},
    {"smiles": "Cn1nc(-c2ccc(OC(F)(F)F)cc2)cc1Nc1cc(O)cc(O)c1C(=O)N1Cc2ccccc2C1", "note": "[Compound 130, 4-(2,3-Dihydro-1H-isoindole-2-carbonyl)-5-((1-methyl-3-(4-(trifluoromethoxy)phenyl)-1H-pyrazol-5-yl)amino)benzene-1,3-diol]", "values": [
      {"measurement": "fungicidal activity in combination with fluconazole", "setting": "[1]", "value": "fungicidal"}
    ]}
  ]
}
